According to ChEMBL document CHEMBL1158200, “Coriadienin, the first annonaceous acetogenin with two double bonds isolated from Annona coriaceae” (J Nat Prod, 1996):
Values after ≈ are worked out from the molar mass of the structure shown.

Assays:
KB = assay: Cytotoxicity against human KB cells; assay type: functional
[1] = Cytotoxicity against african green monkey Vero cells; assay type: cell-based; settings: chlorocebus sabaeus, read-out: ED50 (the source's name)

Compound | ED50 (KB) | CC50 [1] [µg/mL] | EC50 (KB; Homo sapiens, KB, read-out: ED50 (the source's name)) [µg/mL]
CCCCCCCCCCCC[C@H](O)[C@@H](O)CC/C=C\CC[C@@H](O)[C@H]1CCC(CCCCCCCC2=CC(C)OC2=O)O1 (some centres not stated) | 6 ×10⁻⁴ ug/ml | 0.05 (≈ 0.0824 µM) | –
CC(=O)O[C@H]1C(=O)[C@@]2(C)[C@H]([C@H](OC(=O)c3ccccc3)[C@]3(O)C[C@H](OC(=O)[C@H](O)[C@@H](NC(=O)c4ccccc4)c4ccccc4)C(C)=C1C3(C)C)[C@]1(OC(C)=O)CO[C@@H]1C[C@@H]2O [PACLITAXEL] | – | > 0.3 | 0.02 (≈ 0.0234 µM)
CCCCCCCCCCCC[C@H](O)[C@@H](O)CC/C=C\CC/C=C\CCC(O)CCCCCC(O)CC1=CC(C)OC1=O (some centres not stated) [CORIADIENIN] | 1.6 ×10⁻⁶ ug/ml | 0.15 (≈ 0.247 µM) | –
CCCCCCCCCCCC[C@H](O)[C@@H](O)CC/C=C\CC[C@@H](O)[C@H]1CCC(CCCCCC(O)CC2=CC(C)OC2=O)O1 (some centres not stated) [CORIACIN] | <3 ×10⁻⁷ ug/ml | 0.0057 (≈ 0.00915 µM) | –
CCCCCCCCCCCC[C@H](O)[C@@H](O)CCC1OC1CCC1OC1CCC(O)CCCCCC(O)CC1=CC(C)OC1=O (some centres not stated) [BISEPOXYCORIADIENIN] | 2.5 ×10⁻⁷ ug/ml | 0.013 (≈ 0.0203 µM) | –
CCCCCCCCCCCCCCC(O)C(O)CC[C@H](O)[C@H]1CC[C@H](CCCCC[C@@H](O)CC2=C[C@H](C)OC2=O)O1 (some centres not stated) [GIGANTETRONENIN] | <3 ×10⁻⁷ ug/ml | 0.0057 (≈ 0.00955 µM) | –
